Test results taken from patent publication US20260242416A1, “ANTIMICROBIAL PEPTIDES” (priority 2023, published 2026).
Converted amounts (≈) assume the structure as drawn. “Also recorded” adds a separate entry of the source. Where a SMILES comes first, the peptide text is derived from it.

Key:
[1] = system: Escherichia coli ATCC 25922; experiment: Antimicrobial susceptibility testing (MIC/MBC), Example 1; format: cell-based; details: Table 3; footnote: wild-type Escherichia coli ATCC 29522; minimum of three independent experiments
Protocol: Twenty-one putative AMP sequences identified using the rAMPage pipeline were validated through a minimum of three AST experiments performed independently on separate days. In these tests, the AMP activity was assessed using two metrics: minimum inhibitory concentration and minimum bactericidal concentration (MIC and MBC, respectively). MIC and MBC values were determined using procedures outlined by the Clinical and Laboratory Standards Institute (CLSI), with the recommended adaptations for the testing of cationic AMPs described previously. “Wild-type” strains of Escherichia coli (E. coli 25922) and Staphylococcus aureus (S. aureus 29213) were purchased from the American Type Culture Collection (ATCC; Manassas, VA, USA) and were used for screening of antimicrobial activity. Briefly, putative AMPs were synthesized by Genscript (Piscataway, NJ, USA) and received in lyophilized format. These peptides were suspended using ultrapure water (Life Technologies, Grand Island, NY, USA; Invitrogen cat #10977-015), and an 11 μL two-fold serial dilution of 1280 to 2.5 μg/mL was prepared in duplicate rows in a 96-well microtiter plate, before being combined with 100 μL standardized bacterial inoculum yielding a final duplicate testing range of 128 to 0.25 μg/mL. The bacterial inoculum was prepared using colonies isolated on non-selective agar and combined with Mueller Hinton Broth. This suspension was measured and adjusted to achieve an optical density of 0.08-0.1, equivalent to a 0.5 McFarland standard (1-2×10^8 cfu/mL). The inoculum was then diluted to a target concentration of 5±3×10^5 cfu/mL; total viable counts from the final inoculum were routinely performed to confirm the target bacterial density was achieved. […] The MIC and adjacent wells were plated onto non-selective agar; the concentration in which killed 99.9% of the inoculum following additional overnight incubation was determined to be the MBC.

[2] = system: E. coli ATCC 25922, Salmonella Enteritidis, S. aureus ATCC 29213; experiment: Broth microdilution, panel result (at least one / all strains), Example 2; format: cell-based; set-up: key to inhibitory activity (asterisk): *Indicates inhibitory activity; details: for inhibitory activity (asterisk): Table 14, against at least one of E. coli ATCC 25922, Salmonella Enteritidis, S. aureus ATCC 29213; for spectrum of antimicrobial activity: panel of E. coli, Salmonella Enteritidis, S. aureus, up to 128 μg/mL
Procedure, shortened: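 CLSI broth microdilution adapted for cationic peptides, in MHB with a final inoculum of 2-8×10^5 cfu/mL in polypropylene plates. Peptides were serially diluted from 128 down to 0.5 μg/mL and incubated 20-24 h at 37° C. MIC is the lowest concentration with no visible growth.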

E. coli ATCC 25922 = format: cell-based, Escherichia coli
Procedure, shortened: (§1)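 CLSI broth microdilution adapted for cationic peptides, in Mueller-Hinton broth, inoculum 2-8×10^5 cfu/mL. Peptides serially diluted from 128 to 0.5 μg/mL in polypropylene plates, incubated 20-24 h at 37° C. MIC = lowest concentration without visible growth.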

[3] = system: Salmonella enterica serovar Enteritidis (human clinical isolate); format: cell-based; details: serovar Enteritidis (human clinical isolate)
Procedure, shortened: as §1

S. aureus ATCC 29213 = format: cell-based, Staphylococcus aureus; details: for MIC (ug/mL) S. aureus: ATCC 29213
Procedure, shortened: as §1

[4] = alamarBlue cell viability assay (cytotoxicity); format: cell-based, human; details: human, HEK293 cells; for viability at 4 h, 64 µg/mL: at 64 μg/mL; for viability at 4 h, 128 µg/mL: at 128 μg/mL
Protocol: (§2) The human embryonic kidney cell line HEK293 and the corresponding growth media and supplements were purchased from the ATCC. The cells were maintained in Eagle's Minimum Essential Medium (EMEM) supplemented with 10% fetal bovine serum (FBS) and 1% Penicillin-Streptomycin solution and grown in a 5% CO2 incubator at 37° C. […] Cells were incubated overnight to allow them to adhere. […] TX-100 was diluted to 2% in UltraPure deionized water and added as a positive control. Complete growth medium was added to the peptides and TX-100 containing wells. Spent growth medium of wells with adhered cells was replaced with the contents of wells containing serially diluted peptides or TX-100. Cells were incubated for four hours at 37° C. in 5% CO2 incubator. Growth medium containing peptides or TX-100 was replaced with fresh growth medium containing 10% (v/v) alamarBlue (Bio-Rad Laboratories, Hercules, CA, USA) and incubated for 20 h. Fluorescence was measured at excitation of 540 nm and emission of 590 nm in a Cytation 5 plate reader (Agilent BioTek, Winooski, VT, USA) and results recorded and analyzed with Gen5 software (Agilent BioTek, Winooski, VT, USA). The average fluorescence reads of TX-100 and growth media only wells were used to calculate 0% and 100% cell viability, respectively. The percentage of viable cells at each peptide concentration was determined by Formula 1: […]

HEK293 cells = experiment: alamarBlue cell viability assay (cytotoxicity); format: cell-based, human; details: concentrations up to 128 μg/mL
Protocol: as §2

| Compound | MIC against E. coli (E. coli ATCC 25922) | MIC (ug/mL) S. Enteritidis [3] | MIC (ug/mL) S. aureus (S. aureus ATCC 29213) | MIC against S. aureus (S. aureus ATCC 29213) | MIC (ug/mL) E. coli (E. coli ATCC 25922; ATCC 25922) | MIC* (μg/mL) E. coli [1] | inhibitory activity (asterisk) [2] | viability at 4 h, 64 µg/mL [4] | viability at 4 h, 128 µg/mL [4] | cytotoxicity (HEK293 cells) | spectrum of antimicrobial activity [2] |
| --- | --- | --- | --- | --- | --- | --- | --- | --- | --- | --- | --- |
| CC[C@H](C)[C@H](NC(=O)CN)C(=O)N[C@@H](CC(C)C)C(=O)N[C@@H](CC(=O)O)C(=O)N[C@H](C(=O)N[C@@H](CC(C)C)C(=O)N[C@@H](CCCCN)C(=O)N[C@@H](CCC(N)=O)C(=O)N[C@@H](CC(C)C)C(=O)NCC(=O)N[C@@H](CCCCN)C(=O)N[C@@H](C)C(=O)N[C@@H](C)C(=O)N[C@H](C(=O)N[C@@H](CCC(N)=O)C(=O)NCC(=O)N[C@@H](CC(C)C)C(=O)N[C@@H](CC(C)C)C(=O)N[C@@H](CO)C(=O)N[C@@H](CCCCN)C(=O)N[C@@H](C)C(=O)N[C@@H](C)C(=O)N[C@@H](CS)C(=O)N[C@@H](CCCCN)C(=O)N[C@@H](CC(C)C)C(=O)N[C@@H](C)C(=O)N[C@@H](CCCCN)C(=O)N[C@H](C(=O)N[C@@H](CS)C(=O)O)[C@@H](C)O)C(C)C)[C@@H](C)O [AmMa1] (H-GILDTLKQLGKAAVQGLLSKAACKLAKTC-OH; N-terminus and C-terminus assumed) |  |  |  |  |  | 2 to 4 µg⁻¹ mL⁻¹ | 12.* GILDTLKQLGKAAVQGLLSKAACKLAKTC |  |  |  |  |
| CC[C@H](C)[C@H](NC(=O)[C@H](CCCCN)NC(=O)[C@H](CS)NC(=O)[C@H](CCCCN)NC(=O)[C@H](CC(C)C)NC(=O)[C@H](CC(N)=O)NC(=O)[C@H](Cc1ccc(O)cc1)NC(=O)[C@H](CC(C)C)NC(=O)[C@H](CC(C)C)NC(=O)[C@@H](NC(=O)[C@@H](NC(=O)[C@H](C)NC(=O)[C@@H](NC(=O)[C@H](CC(N)=O)NC(=O)[C@H](CCCCN)NC(=O)[C@H](C)NC(=O)[C@@H](NC(=O)[C@H](CC(N)=O)NC(=O)[C@H](CCCCN)NC(=O)[C@H](C)NC(=O)[C@@H](NC(=O)[C@H](CC(=O)O)NC(=O)[C@H](CCSC)NC(=O)[C@H](Cc1ccccc1)NC(=O)CN)[C@@H](C)O)C(C)C)C(C)C)C(C)C)[C@@H](C)O)C(=O)N[C@H](C(=O)N[C@@H](CCCCN)C(=O)N[C@@H](C)C(=O)N[C@@H](CS)C(=O)O)[C@@H](C)O [OdMa12] (H-GFMDTAKNVAKNVAVTLLYNLKCKITKAC-OH; N-terminus and C-terminus assumed) |  |  |  |  |  | 4 µg⁻¹ mL⁻¹ | 69.* GFMDTAKNVAKNVAVTLLYNLKCKITKAC |  |  |  |  |
| CC(C)C[C@H](NC(=O)CNC(=O)[C@@H](NC(=O)[C@@H](NC(=O)CNC(=O)[C@H](CS)NC(=O)[C@H](CC(C)C)NC(=O)[C@@H](NC(=O)[C@H](CCCCN)NC(=O)[C@H](CCCCN)NC(=O)CNC(=O)[C@@H](NC(=O)CNC(=O)[C@H](CC(C)C)NC(=O)[C@@H](NC(=O)[C@H](CCCCN)NC(=O)CNC(=O)[C@H](CC(C)C)NC(=O)[C@H](CC(C)C)NC(=O)CN)C(C)C)C(C)C)C(C)C)C(C)C)[C@@H](C)O)C(=O)N[C@@H](CS)C(=O)O [PeNi1] (H-GLLGKVLGVGKKVLCGVTGLC-OH; N-terminus and C-terminus assumed) | 4 µg/mL (≈ 1.99 µM) | 8 to 16 µg/mL |  | 4 µg/mL (≈ 1.99 µM) |  |  | 363.* GLLGKVLGVGKKVLCGVTGLC | < 75% | ~0% | high levels of cytotoxicity at concentrations higher than their MICs | active against all three bacteria |
| CC[C@H](C)[C@H](NC(=O)CNC(=O)[C@H](C)NC(=O)[C@@H](NC(=O)[C@H](CC(N)=O)NC(=O)[C@H](CCCCN)NC(=O)[C@H](C)NC(=O)[C@H](C)NC(=O)CNC(=O)[C@H](CCCCN)NC(=O)[C@@H](NC(=O)[C@@H](NC(=O)[C@H](CC(=O)O)NC(=O)[C@H](CC(C)C)NC(=O)[C@H](CC(C)C)NC(=O)[C@H](CC(C)C)NC(=O)CN)[C@@H](C)O)C(C)C)C(C)C)C(=O)N[C@@H](CC(C)C)C(=O)N[C@@H](CC(C)C)C(=O)N[C@@H](CC(N)=O)C(=O)N[C@@H](CCCCN)C(=O)N[C@@H](CC(C)C)C(=O)N[C@@H](CCCCN)C(=O)N[C@@H](CS)C(=O)N[C@@H](CCCCN)C(=O)N[C@H](C(=O)N[C@H](C(=O)NCC(=O)N[C@@H](CC(=O)O)C(=O)N[C@@H](CS)C(=O)O)[C@@H](C)O)C(C)C [PeNi10] (H-GLLLDTVKGAAKNVAGILLNKLKCKVTGDC-OH; N-terminus and C-terminus assumed) |  |  |  |  |  | 8 µg⁻¹ mL⁻¹ | 1086.* GLLLDTVKGAAKNVAGILLNKLKCKVTGDC |  |  |  |  |

Now from value to molecule, other results behind:

| MIC against E. coli (E. coli ATCC 25922) | MIC (ug/mL) S. Enteritidis [3] | MIC (ug/mL) S. aureus (S. aureus ATCC 29213) | MIC against S. aureus (S. aureus ATCC 29213) | MIC (ug/mL) E. coli (E. coli ATCC 25922; ATCC 25922) | Compound | MIC* (μg/mL) E. coli [1] | inhibitory activity (asterisk) [2] | viability at 4 h, 64 µg/mL [4] | viability at 4 h, 128 µg/mL [4] | cytotoxicity (HEK293 cells) | spectrum of antimicrobial activity [2] |
| --- | --- | --- | --- | --- | --- | --- | --- | --- | --- | --- | --- |
| 4 µg/mL (≈ 1.97 µM) | 8 to 16 µg/mL | 4 to 8 µg/mL |  |  | CC[C@H](C)[C@H](NC(=O)CNC(=O)[C@H](CCCNC(=N)N)NC(=O)[C@H](CC(C)C)NC(=O)[C@H](CC(C)C)NC(=O)CN)C(=O)N[C@@H](CC(C)C)C(=O)NCC(=O)N[C@@H](C)C(=O)NCC(=O)N[C@@H](CCCCN)C(=O)N[C@@H](CCCCN)C(=O)N[C@H](C(=O)N[C@H](C(=O)N[C@@H](CS)C(=O)NCC(=O)N[C@@H](CC(C)C)C(=O)N[C@@H](CO)C(=O)NCC(=O)N[C@@H](CC(C)C)C(=O)N[C@@H](CS)C(=O)O)C(C)C)[C@@H](C)CC [OdMa2] (H-GLLRGILGAGKKIVCGLSGLC-OH; N-terminus and C-terminus assumed) |  | 64.* GLLRGILGAGKKIVCGLSGLC | < 75% | ~0% | high levels of cytotoxicity at concentrations higher than their MICs | active against all three bacteria |
|  | 8 to 16 µg/mL | 4 to 8 µg/mL |  | 2 to 4 µg/mL | CC[C@H](C)[C@H](NC(=O)[C@H](CCCCN)NC(=O)CNC(=O)[C@H](CC(C)C)NC(=O)[C@H](CC(C)C)NC(=O)CN)C(=O)N[C@@H](CC(C)C)C(=O)NCC(=O)N[C@H](C(=O)NCC(=O)N[C@@H](CCCCN)C(=O)N[C@@H](CCCCN)C(=O)N[C@H](C(=O)N[C@@H](CC(C)C)C(=O)N[C@@H](CS)C(=O)NCC(=O)N[C@H](C(=O)N[C@@H](CO)C(=O)NCC(=O)N[C@@H](CC(C)C)C(=O)N[C@@H](CS)C(=O)O)C(C)C)C(C)C)C(C)C [PeNi9] (H-GLLGKILGVGKKVLCGVSGLC-OH; N-terminus and C-terminus assumed) |  | 32.* GLLGKILGVGKKVLCGVSGLC |  | 0% | low or no cytotoxicity at lower concentrations; also recorded: high levels of cytotoxicity at concentrations higher than their MICs | active against all three bacteria |
